The values that follow come from patent US20190284168A1, “PYRAZOLE DERIVATIES AS SGC STIMULATORS” (IRONWOOD PHARMACEUTICALS, INC., priority 2014, published 2019).

Assay [1] deals with T1, soluble guanylate cyclase (sGC) (Homo sapiens, UniProt Q02108+Q02153).
T1 construct: endogenously expressing soluble guanylate cyclase (sGC); endogenous in cells; host or cells: HEK293
T1 sequence (Q02153 1-619): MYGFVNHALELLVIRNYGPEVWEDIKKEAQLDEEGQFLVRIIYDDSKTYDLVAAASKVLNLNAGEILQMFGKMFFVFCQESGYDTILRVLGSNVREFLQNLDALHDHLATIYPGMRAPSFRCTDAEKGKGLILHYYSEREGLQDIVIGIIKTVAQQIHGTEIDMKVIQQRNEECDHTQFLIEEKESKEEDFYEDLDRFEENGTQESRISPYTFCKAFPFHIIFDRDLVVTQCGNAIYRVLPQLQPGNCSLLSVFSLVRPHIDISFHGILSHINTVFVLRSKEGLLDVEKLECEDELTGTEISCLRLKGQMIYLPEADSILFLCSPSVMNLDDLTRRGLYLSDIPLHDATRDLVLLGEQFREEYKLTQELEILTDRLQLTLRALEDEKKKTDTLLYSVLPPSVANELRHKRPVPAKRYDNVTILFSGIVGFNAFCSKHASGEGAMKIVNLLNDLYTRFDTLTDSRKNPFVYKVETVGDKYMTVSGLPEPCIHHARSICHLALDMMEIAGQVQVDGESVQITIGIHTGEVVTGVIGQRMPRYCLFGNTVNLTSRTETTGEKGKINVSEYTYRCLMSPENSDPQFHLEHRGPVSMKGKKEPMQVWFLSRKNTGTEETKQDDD
T1 sequence (Q02108 1-690): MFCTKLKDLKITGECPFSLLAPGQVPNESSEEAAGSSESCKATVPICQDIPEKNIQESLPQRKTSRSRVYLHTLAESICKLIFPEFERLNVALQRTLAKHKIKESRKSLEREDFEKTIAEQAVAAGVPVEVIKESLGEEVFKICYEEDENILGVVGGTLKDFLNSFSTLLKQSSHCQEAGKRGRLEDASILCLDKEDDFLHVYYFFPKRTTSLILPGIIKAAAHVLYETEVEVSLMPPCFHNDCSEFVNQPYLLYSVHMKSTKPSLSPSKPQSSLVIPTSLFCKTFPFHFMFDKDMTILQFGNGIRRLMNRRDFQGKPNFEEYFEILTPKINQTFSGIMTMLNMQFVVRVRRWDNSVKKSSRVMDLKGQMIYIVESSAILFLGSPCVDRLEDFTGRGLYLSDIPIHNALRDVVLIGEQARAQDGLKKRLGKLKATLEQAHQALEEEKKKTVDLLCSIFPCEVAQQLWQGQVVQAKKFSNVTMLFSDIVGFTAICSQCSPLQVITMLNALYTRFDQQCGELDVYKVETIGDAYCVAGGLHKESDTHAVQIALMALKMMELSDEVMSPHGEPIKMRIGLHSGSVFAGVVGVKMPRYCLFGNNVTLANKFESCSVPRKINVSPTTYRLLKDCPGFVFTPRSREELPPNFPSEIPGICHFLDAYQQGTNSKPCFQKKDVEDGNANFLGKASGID
As to the kind of experiment: sGC-HEK-cGMP assay with LC/MS detection. The assay is classed as cell-based. The settings on record: HEK293 whole cells, LC/MS detection of cGMP, 10 μM DETA-NONOate; 50% of high control response (30 μM Compound Y); read-out: Absolute EC50 (nM)- binned (~).
Procedure: Human embryonic kidney cells (HEK293), endogenously expressing soluble guanylate cyclase (sGC), were used to evaluate the activity of test compounds. Compounds stimulating the sGC enzyme should cause an increase in the intracellular concentration of cGMP. HEK 293 cells were seeded in Dulbecco's Modification of Eagle's Medium supplemented with fetal bovine serum (10% final) and penicillin (100 U/mL)/streptomycin (100 μg/mL) in a 50 μL volume at a density of 1.5×10^4 cells/well in a poly-D-lysine coated 384 well flat bottom plate. Cells were incubated overnight at 37° C. in a humidified chamber with 5% CO2. Medium was aspirated and cells were washed with 1× Hank's Buffered Saline Salt Solution (50 μL). Cells were then incubated for 15 minutes at 37° C. with 50 μL of a 0.5 mM 3-isobutyl-1-methylxanthine (IBMX) solution.
were then added to the assay mixture and the resulting mixture incubated at 37° C. for 20 minutes. After the 20 minute incubation, the assay mixture was aspirated and 10% acetic acid containing 150 ng/mL+3-cGMP (internal standard for LCMS) (50 μL) was added to the cells. The plate was incubated at 4° C. for 30 minutes in the acetic acid solution to stop the reaction and lyse the cells. The plates were then centrifuged at 1,000 g for 3 minutes at 4° C. and the supernatant transferred to a clean reaction plate for LCMS analysis.
cGMP concentrations were determined from each sample using the LCMS conditions below (Table 2) and calculated standard curve.
Data were fit using a 4-parameter fit (log(agonist) vs. response—variable slope) using GraphPad Prism Software v.5. n=2 for all compounds. […] Compounds failing to elicit a minimum response of 50% are reported as >30 μM.

The target in assay [2] is T2, human recombinant soluble guanylate cyclase enzyme α1β1 (Homo sapiens, UniProt Q02108+Q02153).
T2 construct: purchased Enzo Life Sciences ALX-201-177
T2 sequence (Q02108 1-690): T1 sequence (Q02108 1-690)
T2 sequence (Q02153 1-619): T1 sequence (Q02153 1-619)
As to the kind of experiment: Purified human recombinant sGC α1β1 enzyme assay in the presence of DETA-NONOate (cGMP HTRF). The format is biochemical. The following applies: 30 uM DETA NONOate; 50% of maximal response of 30 uM Compound Y; read-out: sGC_Enz_HTRF_a1b1 EC50/IC50 Abs (Norm) (nM) Binned. The method, then:
Purified human recombinant soluble guanylate cyclase enzyme α1β1 (h sGC) obtained from Enzo Life Sciences (P/N: ALX-201-177) was used to evaluate the activity of test compounds. The assay reactions contained 0.1 M Tris (pH 8.0), 0.5 mg/mL BSA, 2 mM DTT, 4 mM MgCl2, 30 uM DETA NONOate (Enzo Life Science P/N: ALX-430-014), and 12.5 ng/ml human soluble guanylate cyclase enzyme. […] Guanosine 5'-triphosphate (Sigma-Aldrich P/N: […]) was added to a final concentration of 300 μM and enzyme reactions were incubated (100 μL, 384-well plate format) at 37° C. for 20 minutes. The controls contained 3% DMSO (low control), or 30 uM of Compound Y (high control). After the 20 minute incubation, the reaction was stopped with the addition of 100 μL of ice cold 20% acetic acid. cGMP concentrations in all samples were determined using the cGMP HTRF (Cisbio P/N: 62GM2PEC) assay per manufacturer's instructions. A cGMP standard curve was fit using a 4-parameter fit (log(inhibitor) vs. response-variable slope) using GraphPad Prism Software v.6. Samples were diluted appropriately to ensure that values fell within the linear range of the standard curve. Data were fit using a 4-parameter fit (log(agonist) vs. response-variable slope) using GraphPad Prism Software v.6. The EC50 was interpolated from the curve fit and is defined as the concentration at which the compound elicits 50% of the maximal response of the 30 uM of Compound Y, the high control compound.
In general terms: In TR-FRET formats the signal depends on donor and acceptor labels being close together.

For assay [3], the target named is T3, sGC enzyme (Homo sapiens, UniProt Q02108+Q02153).
T3 construct: host or cells: HEK293 cells expressing GloSensor 40F cGMP
T3 sequence (Q02153 1-619): T1 sequence (Q02153 1-619)
T3 sequence (Q02108 1-690): T1 sequence (Q02108 1-690)
The experiment in a line: cGMP GloSensor cell-based assay, 384-well format. The following applies: read-out: sGC_HEK_GloSensor EC50/IC50 Abs (Norm) (nM) Binned (~). The source says:
Human embryonic kidney cells (HEK293) cells expressing GloSensor™ 40F cGMP (Part No: CS182801, Promega) were used to evaluate the activity of test compounds. The luminescent biosensors (engineered luciferase) that were incorporated into these cells detect cGMP formed by the compounds stimulating the sGC enzyme and emit luminescence.
cGMP GloSensor cells were maintained in Dulbecco's Modification of Eagle's Medium (DMEM) supplemented with fetal bovine serum (FBS) (10% final) and hygromycine (200 ug/ml). The day before assay, cells were plated in DMEM with 10% FBS in a 50 μL volume at a density of 1.5×10^4 cells/well in a poly-D-lysine coated 384-well flat white-bottom plate (Corning Cat No 35661). Cells were incubated overnight at 37° C. in a humidified chamber with 5% CO2. The next day, medium was removed and cells were replaced with 40 ul/well of GloSensor™, 2 mM (Promega Cat No E1291). Cells were treated for 90 minutes at 25° C. to allow the substrate to equilibrate in the cells. Test compounds and Diethylenetriamine NONOate (DETA-NONOate) was diluted to 3 mM (20×) in serum-free CO2 independent medium and serially diluted at 4× dilutions to create 5× dose curve from which 10 ul was added to the wells (x μM concentration for test compound solution and 10 μM concentration for DETA-NONOate solution; wherein x is one of the following final concentrations). • 30000 nM • 7500 nM • 1875 nM • 468.75 nM • 117.19 nM • 29.29 nM • 7.32 nM • 1.83 nM • 0.46 nM • 0.114 nM • 0.029 nM
For the kinetics studies, luminescense was measured right away for 0.2 sec per well with Envision (Perkin Elmer model No). For endpoint SAR screening, data were collected after 55 min incubation at room temperature.
Data analysis was carried out as indicated above in Example 2A.

Bounds are passed on as bounds.

Turning to `O=S1(=O)Cc2cnc(-c3cc(-c4ccon4)n(Cc4ccccc4F)n3)nc2C1` [Compound 3], the EC50 in assay [1] was above 30000 nM; in assay [2], at most 1000 nM.

In the case of `NC(=O)C(=O)Nc1ccnc(-c2cc(-c3ccon3)n(Cc3ccccc3F)n2)n1` [Compound 4], the EC50 in assay [1] is above 1000 nM; in assay [2] it was at most 1000 nM.

For `Fc1ccccc1Cn1nc(-c2ncc(F)c(Nc3nnc(C(F)(F)F)s3)n2)cc1-c1ccon1` [Compound 11], the EC50 was above 1000 nM in assay [1] and at most 1000 nM in assay [2].

On to `NC(=O)CC(=O)Nc1ccnc(-c2cc(-c3ccon3)n(Cc3ccccc3F)n2)n1` [Compound 17], for which the EC50 in assay [1] was above 30000 nM; in assay [2], at most 1000 nM.

`O=C(Nc1ccnc(-c2cc(-c3ccon3)n(Cc3ccccc3F)n2)n1)c1cc(O)no1` [Compound 27]: the EC50 was above 1000 nM in assay [1] and at most 1000 nM in assay [2].

Take `O=C(CCl)NCC(=O)Nc1ccnc(-c2cc(-c3ccon3)n(Cc3ccccc3F)n2)n1` [Compound 32]: the EC50 in assay [1] and in assay [2] was 100 to 1000 nM each time.

Take `Fc1ccccc1Cn1nc(-c2ncc(N3CCOCC3)cn2)cc1-c1ccon1` [Compound 37]: the EC50 in assay [1] was above 30000 nM; in assay [2] it was at most 1000 nM.

For `O=C(O)Cc1cn(-c2nc(-c3cc(-c4ccon4)n(Cc4ccccc4F)n3)ncc2F)[nH]c1=O` [Compound 38], the values for the EC50 in assay [1] and in assay [2] were 100 to 1000 nM and at most 1000 nM, respectively.

Regarding `O=C(O)Cc1c[nH]n(-c2nc(-c3cc(-c4ccon4)n(Cc4ccccc4F)n3)ncc2F)c1=O` [Compound 39], the EC50 in assay [1] is above 1000 nM; in assay [2], at most 1000 nM.

Turning to `Oc1nnc2n1CCN(c1nc(-c3cc(-c4ccon4)n(Cc4ccccc4F)n3)ncc1F)C2` [Compound 44], the EC50 in assay [1] was below 100 nM; in assay [2], 100 to 1000 nM.

For the compound `O=C(Cc1c[nH]nc1O)Nc1ccnc(-c2cc(-c3ccon3)n(Cc3ccccc3F)n2)n1` [Compound 45], the EC50 was above 1000 nM in assay [1] and at most 1000 nM in assay [2].

Turning to `CS(=O)(=O)C1(C(=O)Nc2ccnc(-c3cc(-c4ccon4)n(Cc4ccccc4F)n3)n2)CC1` [Compound 50], the EC50 is above 1000 nM in assay [1] and at most 1000 nM in assay [2].

As to `Cn1c(=O)c(CC(N)=O)cn1-c1nc(-c2cc(-c3ccon3)n(Cc3ccccc3F)n2)ncc1F` [Compound 56], the EC50 in assay [1] was above 1000 nM; in assay [2], at most 1000 nM.

Consider `O=C(O)C1Cn2c(nnc2C(F)(F)F)CN1c1nc(-c2cc(-c3ccon3)n(Cc3ccccc3F)n2)ncc1F` (stereo not drawn) [Compound 62], for which the EC50 in assay [1] was above 1000 nM; in assay [2], at most 1000 nM.

Regarding `NCC(=O)OCCCCNc1nc(-c2cc(-c3ccon3)n(Cc3ccccc3F)n2)ncc1F` [Compound 178, 4-((5-fluoro-2-(1-(2-fluorobenzyl)-5-(isoxazol-3-yl)-1H-pyrazol-3-yl)pyrimidin-4-yl)amino)butyl 2-aminoacetate], the EC50 in assay [3] is below 100 nM.

As to `Cc1ccc(Cn2nc(-c3ncc(F)c(O)n3)cc2-c2ccon2)cc1` [Compound 185], the EC50 in assay [3] was below 100 nM.

Regarding `Cn1cc(Cn2nc(-c3ncc(F)c(O)n3)cc2-c2ccon2)cn1` [Compound 186], in assay [3], the EC50 is above 1000 nM.

In the case of `Cc1ccc(Cn2nc(-c3ncc(F)c(O)n3)cc2-c2ccon2)cc1F` [Compound 188], in assay [3], the EC50 is below 100 nM.

On to `Oc1nc(-c2cc(-c3ccon3)n(Cc3cccnc3)n2)ncc1F` [Compound 189], for which the EC50 in assay [3] was above 1000 nM.

`Cc1cc(Cn2nc(-c3ncc(F)c(O)n3)cc2-c2ccon2)on1` [Compound 190]: the EC50 in assay [3] is 100 to 1000 nM.

Take `CCOC(=O)C(C)(C)c1nnc(-c2cc(-c3ccon3)n(Cc3ccccc3F)n2)nc1O` [Compound 191]: the EC50 in assay [3] was 100 to 1000 nM.

As for `CCOC(=O)C(C)(C)c1nc(-c2cc(-c3ccon3)n(Cc3ccccc3F)n2)nnc1O` [Compound 192], the EC50 in assay [3] is above 1000 nM.

`Oc1nc(-c2cc(-c3ccon3)n(Cc3cccc(F)c3)n2)ncc1F` [Compound 197]: in assay [3], the EC50 was 100 to 1000 nM.

With `CC(=O)c1cc(-c2nncc(N)n2)nn1Cc1ccccc1F` [Compound 198], in assay [3], the EC50 is above 1000 nM.

Turning to `CC(=O)c1cc(-c2nncc(O)n2)nn1Cc1ccccc1F` [Compound 201], the EC50 in assay [3] was above 1000 nM.

Take `CC(=O)c1cc(-c2ncc(F)c(NCC(F)(F)F)n2)nn1Cc1ccccc1F` [Compound 204]: the EC50 in assay [3] lay in the range of 100 to 1000 nM.

Regarding `Cc1ccc(Cn2nc(-c3ncc(F)c(O)n3)cc2-c2ccon2)c(F)c1` [Compound 208], in assay [3], the EC50 was 100 to 1000 nM.

For the compound `CCOC(=O)C(C)(C)c1nnc(-c2cc(-c3ccon3)n(Cc3ccccc3F)n2)nc1N` [Compound 209], the EC50 in assay [3] is above 1000 nM.

Turning to `Oc1nc(-c2cc(-c3ccon3)n(Cc3ccno3)n2)ncc1F` [Compound 211], the EC50 in assay [3] was above 1000 nM.

In the case of `Cn1nccc1Cn1nc(-c2ncc(F)c(O)n2)cc1-c1ccon1` [Compound 212], in assay [3], the EC50 was above 1000 nM.

Regarding `Oc1nc(-c2cc(-c3ccon3)n(Cc3ccc(F)cc3)n2)ncc1F` [Compound 213], the EC50 in assay [3] was in the range of 100 to 1000 nM.

Turning to `Oc1nc(-c2cc(-c3ccon3)n(CC(F)(F)F)n2)ncc1F` [Compound 214], the EC50 in assay [3] is above 1000 nM.

As to `Oc1nc(-c2cc(-c3ccon3)n(Cc3ncccn3)n2)ncc1F` [Compound 215], the EC50 in assay [3] is above 1000 nM.

For the compound `Oc1nc(-c2cc(-c3ccon3)n(Cc3cncnc3)n2)ncc1F` [Compound 216], the EC50 in assay [3] was above 1000 nM.
